Laboratory results published in patent US20250025461A1, “TREATMENT OF SEVERE AND UNCOMPLICATED MALARIA” (PURDUE RESEARCH FOUDATION, priority 2021, published 2025).
Counter-ions that a name gives are not always drawn.

Test system: P. falciparum malaria
Assay: Phase 1/2 open-label imatinib monotherapy trial vs standard-of-care (SOC)
Type: in vivo, human
Method: Generic imatinib mesylate was purchased from TEVA Pharmaceuticals (Jerusalem, Israel) and was provided to patients in two 200 mg tablets per dose to conform with the usual quantity of imatinib indicated for treatment of chronic myelogenous leukemia. CV-Artecan, the standard-of-care (SOC) for treatment of P. falciparum malaria in Vietnam was purchased from OPC Pharmaceutical (Ho Chi Minh City, Vietnam) and was administered to patients as a tablet containing 40 mg dihydroartemisinin plus 320 mg piperaquine phosphate.
P. falciparum-infected males of age 16-55 years with no complicating co-morbidities that had not received an anti-malarial drug within the previous 4 weeks were eligible for two trials, i.e., imatinib monotherapy and imatinib plus SOC (Im+SOC) triple combination therapy. Those individuals who met eligibility criteria and provided informed written consent were enrolled in the trial.
The phase 1/2 “imatinib monotherapy trial” was an open-label trial aimed at determining the safety and tolerability of imatinib in adult male patients with uncomplicated P. falciparum malaria. Patients were randomly assigned to either a standard-of-care (SOC) control arm (n=8) in which they received 40 mg dihydroartemisinin plus 320 mg piperaquine phosphate orally twice (12 hours apart) on the first day and then once a day on the following 2 days, or an imatinib monotherapy arm (n=7) in which they received 400 mg of imatinib mesylate orally with a meal and full glass of water once a day for five days.
During both trials, patient temperatures and peripheral blood parasite levels were monitored before, during and after the trial on days 0, 1, 2, 3, 5, 7, 28, and 42. Patients were also examined for the usual symptoms of P. falciparum malaria, including fever, chills, headache, fatigue, anorexia, and mild diarrhea.
Primary endpoints for both studies were safety and tolerability. Secondary endpoints were reduction in parasitemia for the imatinib monotherapy study and both reduction in parasitemia and decline in pyrexia for the Im+SOC study. Safety and tolerability were assessed at protocol-specified time points and adverse events were classified as toxicities not normally associated with P. falciparum malaria, including edema, rashes, and severe diarrhea, etc. […] Attribution of imatinib to adverse events was assessed using a 5-point scale: not related, unlikely related, possibly related, probably related, and definitely related.
A mixed ANOVA was conducted to determine the effect of drug treatment on parasitemia and pyrexia. Post-hoc multi-comparison testing was used to determine which time points were statistically different. […] SOC treatment cohorts from each individual trial were analyzed separately. […]

Cc1ccc(NC(=O)c2ccc(CN3CCN(C)CC3)cc2)cc1Nc1nccc(-c2cccnc2)n1 [imatinib, imatinib mesylate]
drug-related toxicity (analyses of blood parameters and body temperatures) (400 mg imatinib orally once a day for five days): no evidence of drug-related toxicity
participants who experienced a rise in parasitemia and had to be transferred to SOC (imatinib alone, n=7): two of the seven
apparent accelerated decrease in pyrexia vs SOC (mixed ANOVA, FIG. 1D) (p-value=0.7029): did not achieve statistical significance
number of parasitized cells per microliter of blood (FIG. 1A) (peripheral blood, before, during and after treatment, n=7): decrease
